Reference: patent publication US20170216295A1, “CCR9 ANTAGONIST COMPOUNDS” (Merck Sharp & Dohme Corp., priority 2014, published 2017)
Where “and” joins values, the source holds several entries; their conditions need not be identical. Identical values can stand only once.

Columns and labels:
[1] = Human liver microsome clearance; assay type: in vitro ADME; conditions: second value of RLM/HLM cell
Molt-4 cells = assay: Chemotaxis assay of Molt-4 cells towards TECK; assay type: cell-based; conditions: Homo sapiens; Molt-4 cells in HBSS buffer with 0.1% BSA; TECK at EC80
Protocol: Molt-4 cells were harvested and re-suspended in HBSS buffer with 0.1% BSA or in 100% human serum. Cell suspensions were mixed with compound solutions for 10 min and then seeded onto the upper chamber of the ChemoTX chemotaxis plates with 5 μm pore size polycarbonate membrane from NeuroProbe (Gaithersburg, Md.). EC80 concentration of TECK was applied in the bottom chamber. After 2 hours of incubation at 37° C., the assay was terminated by removing the upper chamber. The cells migrated into the bottom chamber were quantified with CyQUANT solution from Invitrogen (Grand Island, N.Y.).

[2] = Rat liver microsome clearance; assay type: in vitro ADME; conditions: first value of RLM/HLM cell
Protocol: Microsomal In-Vitro Clearance:
The test articles (2 μM) were incubated for one hour in 1 mg/mL rat hepatic microsomes with 2 mM NADPH at 37° C. with aliquots removed at t=0, 15, 30 and 60 minutes. Incubations were terminated at the specified times by protein precipitation, and samples were centrifuged. Resultant supernants were analyzed by LC-MS/MS for the amount of incubated compound remaining, and the half life (t1/2) and intrinsic microsomal clearance rate (CLint) of each compound was calculated.

CCR9 receptor = target: T1, CCR9 receptor (Homo sapiens, UniProt P51686); assay: Calcium mobilization (Ca FLIPR) assay, antagonist mode vs TECK; assay type: cell-based; conditions: for IC50: cells expressing CCR9, TECK at EC80 0.01 uM, read-out: CCR9 Ca2+ IC50; for LipE: LipE = pIC50-clogD
T1 sequence (P51686 1-369): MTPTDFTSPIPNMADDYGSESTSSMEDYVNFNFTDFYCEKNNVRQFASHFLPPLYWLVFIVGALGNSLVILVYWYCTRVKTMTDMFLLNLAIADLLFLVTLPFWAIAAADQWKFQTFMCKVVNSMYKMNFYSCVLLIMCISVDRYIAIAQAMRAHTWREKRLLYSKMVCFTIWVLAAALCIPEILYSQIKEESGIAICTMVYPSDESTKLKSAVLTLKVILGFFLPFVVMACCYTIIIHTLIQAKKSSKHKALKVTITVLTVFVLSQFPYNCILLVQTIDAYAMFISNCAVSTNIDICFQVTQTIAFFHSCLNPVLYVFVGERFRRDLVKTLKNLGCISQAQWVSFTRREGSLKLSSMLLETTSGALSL
Protocol: Calcium Mobilization Assay:
Cells expressing CCR9 receptor (MultiSpan, Hayward, Calif.) were seeded in 384-well plates. Ca^2+ assays were conducted after overnight culture in the plates according to the manufacturer's protocol using Screen Quest™ Fluo-8 no wash kit (AAT Bioquest, Sunnyvale, Calif.). Dye loading buffer was added to the cells and incubated for 45 minutes at 37° C. followed by 15 minutes incubation at room temperature. Compounds in the presence of 0.1% DMSO were applied to the cells during calcium flux measurement. Calcium flux was monitored for 90 seconds with compound application after 10 seconds. For antagonist mode, cells were preincubated with the compound at room temperature for 10 minutes before the application of the control agonist TECK (Preprotech, Rocky Hill, N.J.) at EC80 concentration of 0.01 uM obtained from dose-response curves of control agonist.

[3] = pH-solubility (high-throughput, buffers); assay type: physicochemical; conditions: for Sol. pH 4: 1000 ug compound in 1 mL pH 4 buffer; for Sol. pH 7: 1000 ug compound in 1 mL pH 7 buffer; for Sol. pH 9: 1000 ug compound in 1 mL pH 9 buffer
Protocol: Solubility of representative acidic triazoles was measured in 3 buffer systems (pH 4, 7.4 and 9) using an in-house high-throughput solubility method. A stock solution of test article was prepared in DMA (20 mg/ml) and spiked into each buffer system (20× dilution) to target 1 mg/ml concentration. The samples were vortexed briefly and equilibrated for 24 hr at RT. Samples were then filtered using 0.22u PVDF membrane filters and analyzed for drug concentration using HPLC.

| SMILES | HLM CL (human liver microsome hepatic clearance) [1] | IC50 (Molt-4 cells) [nM] | RLM CL (rat liver microsome hepatic clearance) [2] [mL/min/kg] | IC50 (CCR9 receptor) [nM] | LipE (CCR9 receptor) | Sol. pH 4 [3] | Sol. pH 7 [3] | Sol. pH 9 [3] |
| --- | --- | --- | --- | --- | --- | --- | --- | --- |
| CC(C)(C)c1ccc(Cc2c(C3CCOC3)nc3ncnn3c2O)cc1 (stereo not drawn) [Compound 29] | 8 mL/min/kg | 205 | 45 | 17 | – | – | – | – |
| Cc1nc2nc(C(F)(F)F)nn2c(O)c1Cc1ccc(C(C)(C)C)cc1 [Compound 2] | 19 mL/min/kg | – | 54 | 410 | 2.6 | 4 ug/mL | 565 ug/mL | 1035 ug/mL and > 1000 ug/mL |
| CCc1nc2n[nH]c(=O)n2c(O)c1Cc1ccc(C(C)(C)C)cc1 [Compound 8] | 4 mL/min/kg | 230 | 39 | 28 | 5.5 | 79 ug/mL | 117 ug/mL | 914 ug/mL |
| CCOc1nc2ncnn2c(O)c1Cc1ccc(C(C)(C)C)cc1 [Compound 25] | 11 mL/min/kg | 92 | 52 | 23 | 4.8 | – | – | – |
| Cc1c(Cc2ccc(C(C)(C)C)cc2)c(O)nc2ncnn12 [Compound 3] | – | – | – | 820 | – | – | – | – |
| Cc1nc2cc(C(F)(F)F)nn2c(O)c1Cc1ccc(C(C)(C)C)cc1 [Compound 7] | 18 mL/min/kg | 980 | 42 | 110 | – | 0 ug/mL | 0 ug/mL | 5 ug/mL |
| CN(C)c1nc2ncnn2c(O)c1Cc1ccc(C(C)(C)C)cc1 [Compound 32] | – | – | – | > 1000 | – | – | – | – |
| Cc1nc2nc(C(F)(F)F)nn2c(O)c1Cc1ccc(C2(F)CCOCC2)cc1 [Compound 34] | 17 mL/min/kg | – | 43 | 340 | 3.7 | – | – | – |
| CCc1nc2ncnn2c(O)c1Cc1ccc(C(C)(C)COC)cc1 [Compound 36] | 20 mL/min/kg | 60 | 49 | 13 | 5.9 | 62 ug/mL | > 1000 ug/mL | > 1000 ug/mL |
| CC(C)(C)c1ccc(Cc2c(C3CCCC3)nc3ncnn3c2O)cc1 [Compound 28] | 11 mL/min/kg | 145 | 47 | 15 | – | – | – | – |
| CC(C)(C)c1ccc(Cc2c(-c3ccoc3)nc3ncnn3c2O)cc1 [Compound 30] | – | 104 | – | 5 | 5.3 | – | – | – |
| CC(C)(C)c1ccc(Cc2c(O)nc3ncnn3c2O)cc1 [Compound 31] | – | – | – | > 10000 | – | – | – | – |
| CCc1nc2nc(CO)nn2c(O)c1Cc1ccc(C(C)(C)C)cc1 [Compound 20] | 8 mL/min/kg | 200 | 43 | 10 | 5.5 | – | – | – |
| CCc1nc2nc(CN(C)C)nn2c(O)c1Cc1ccc(C(C)(C)C)cc1 [Compound 16] | – | – | – | 290 | – | – | – | – |
| CCc1nc2ncnn2c(O)c1Cc1ccc(C(C)(C)C)cc1 [Compound 21] | 12 mL/min/kg | 88 | 51 | 21 | 4.8 | – | – | – |
| CCc1nc2ncnn2c(O)c1Cc1ccc(C2(C)CCOCC2)cc1 [Compound 35] | 17 mL/min/kg | 380 | 37 | 22 | 5.7 | >1000/>1000/>1000 ug/mL | >1000/>1000/>1000 ug/mL | >1000/>1000/>1000 ug/mL |
| Cc1nc2nc(C)c(Cc3ccc(C(C)(C)C)cc3)c(O)n2n1 [Compound 12] | 11 mL/min/kg | – | 50 | 220 | 3.9 | – | – | – |
| Cc1c(Cc2ccc(C(C)(C)C)cc2)c(=O)n2nc(C(F)(F)F)nc2n1C [Compound 4] | – | – | – | > 20000 | – | – | – | – |
| CCOc1nc2nc(CC)c(Cc3ccc(C(C)(C)C)cc3)c(O)n2n1 [Compound 19] | 11 mL/min/kg | 150 | 16 | 8 | 4.2 | 79 ug/mL | 117 ug/mL | 914 ug/mL |
| CCc1nc2nc(N)nn2c(O)c1Cc1ccc(C(C)(C)C)cc1 [Compound 14] | 6 mL/min/kg | 50 | 39 | 2 | 5.9 | 2 ug/mL | 7 ug/mL | 358 ug/mL |
| CCc1nc2nc(N(C)C)nn2c(O)c1Cc1ccc(C(C)(C)C)cc1 [Compound 15] | 12 mL/min/kg | 380 | 43 | 33 | 4.1 | – | – | – |
| CCc1nc2nc(C(=O)N(C)C)nn2c(O)c1Cc1ccc(C(C)(C)C)cc1 [Compound 18] | 18 mL/min/kg | 520 | 42 | 12 | – | 0 ug/mL | 0 ug/mL | 5 ug/mL |
| CCCc1nc2ncnn2c(O)c1Cc1ccc(C(C)(C)C)cc1 [Compound 22] | – | 55 | – | 4 | 5.0 | – | – | – |
| Cc1cn2c(O)c(Cc3ccc(C(C)(C)C)cc3)c(C)nc2n1 [Compound 9] | – | – | – | > 10000 | – | – | – | – |
| CCc1nc2c[nH]nc2c(O)c1Cc1ccc(C(C)(C)C)cc1 [Compound 10] | – | – | – | > 10000 | – | – | – | – |
| COc1c(Cc2ccc(C(C)(C)C)cc2)c(C)nc2nc(C(F)(F)F)nn12 [Compound 5] | – | – | – | 3700 | – | – | – | – |
| Cc1nc2nc(C(F)(F)F)nn2c(O)c1Cc1ccc(N2CC(C)OC(C)C2)c(F)c1 (stereo not drawn) [Compound 33] | —/17 mL/min/kg | – | – | 1900 | 3 | 79 ug/mL | > 1000 ug/mL | > 1000 ug/mL |
| CC(C)Cc1nc2ncnn2c(O)c1Cc1ccc(C(C)(C)C)cc1 [Compound 24] | 12 mL/min/kg | 270 | 43 | 27 | 3.9 | – | – | – |
| CCc1nc2nc(C)nn2c(O)c1Cc1ccc(C(C)(C)C)cc1 [Compound 13] | – | 130 | – | 19 | 4.4 | – | – | – |
| CCc1nc2nc(COC)nn2c(O)c1Cc1ccc(C(C)(C)C)cc1 [Compound 17] | 13 mL/min/kg | 190 | 36 | 7 | – | – | – | – |
